This passage reports IC50 results from US20260034123A1 (Cedilla Therapeutics, Inc., priority 2022, published 2026).

The target of assay [1] is CDK2/Cyclin E1 (Homo sapiens, UniProt P24941). In words: ADP-Glo Luminescent Kinase Assay (CDK2/E1-37C). It is filed as biochemical. The note with it: 0.18 nM CDK2/Cyclin E1, 100 μM ATP, Histone H1, 37° C.; read-out: ADPGLO (CDK2/E1-37C): IC50. As for the experimental part: Inhibition of CDK2/Cyclin E1 activity by the presence of small molecules was evaluated using ADP-Glo Luminescent Kinase Assay (Promega). Activated CDK2/Cyclin E1 was incubated with its substrate Histone H1 (SignalChem H10-54N) in the kinase reaction buffer (100 μM ATP, 50 mM HEPES pH 7.5, 10 mM MgCl2, 1 mM EDTA, 2 mM DTT, 0.01% Brij35, 0.5 mg/mL BSA). Luminescence was recorded with an Envision plate reader (PerkinElmer).
Dose titrations of inhibitors in 100% DMSO were combined with 0.36 nM CDK2/Cyclin E1 in reaction buffer. The mixtures were incubated for 60 minutes at 37° C. before the addition of ATP and Histone H1 substrate to initiate the kinase reaction. The final conditions were 0.18 nM CDK2/Cyclin E1, 100 μM ATP, and […] Histone H1. The reactions were incubated at 37° C. for 90 minutes before being stopped with the addition of ADP-Glo reagent. This mixture was incubated at room temperature for 60 minutes before Kinase Detection Solution is added to generate luminescence. The stopped reactions were analyzed on an Envision plate reader. The conversion ratios were normalized to yield % activity, plotted against compound concentration, and fit to a four-parameter equation to determine the IC50 for each compound.

In assay [2] the test system is Kuramochi cells RB-WT. In words: IncuCyte Kuramochi cell proliferation assay, RB-WT. It is filed as cell-based. The note with it: 72 hours, cell count. As for the experimental part:
(§1) IncuCyte® assay was used to measure the effect of disclosed compounds on cell proliferation. Fluorescent microscopy images of cells were taken immediately after compound treatment and 72 hours later. Image analysis software was used to obtain cell counts as a function of compound concentration. Kuramochi cells labeled with mApple-H2B were seeded on 384-well assay-ready plates. Plates were placed in an IncuCyte® (Sartorius) and scanned at 0 and 72 hours. IncuCyte® software was used to count the number of fluorescent nuclei in each well. The fold change in cell count from 0 to 72 hours in wells treated with increasing compounds concentrations (10 pts, 1/2 log dilution, 20 µM top concentration) was normalized to DMSO control wells. The normalized cell counts were fit with dose response curves and a GI50 was calculated.

The subject of assay [3] is Kuramochi cells RB-KO. In words: IncuCyte Kuramochi cell proliferation assay, RB-KO. The assay is classed as cell-based. The note with it: 72 hours, cell count, batch mean. As to the method: as §1

The structures appear in SMILES notation. pIC50: −log10 of the molar value.

On to `O=C(O)c1c(COC[C@@H]2CN(C(=O)c3cnn(Cc4ccc(Cl)cc4F)c3)CC23CN(C(=O)C2(C(F)(F)F)CC2)C3)cccc1C1CCC(C(F)(F)F)CC1` (stereo in doubt) [Compound I-71, 2-(((6-(1-(4-chloro-2-fluorobenzyl)-1H-pyrazole-4-carbonyl)-2-(1-(trifluoromethyl)cyclopropane-1-carbonyl)-2,6-diazaspiro[3.4]octan-8-yl)methoxy)methyl)-6-(4-(trifluoromethyl)cyclohexyl)benzoic acid], for which the pIC50 in assay [1] is no less than 6.30; in assay [2], less than 5.00; in assay [3], less than 5.00.
As to `O=C(O)c1ccccc1-c1c(COC[C@@H]2CN(C(=O)c3cnn(Cc4ccc(F)cc4)c3)CC23CN(C(=O)C2(C(F)(F)F)CC2)C3)cccc1C1CCC(C(F)(F)F)CC1` (stereo in doubt) [Compound I-104, 2′-(((6-(1-(4-fluorobenzyl)-1H-pyrazole-4-carbonyl)-2-(1-(trifluoromethyl)cyclopropanecarbonyl)-2,6-diazaspiro[3.4]octan-8-yl)methoxy)methyl)-6′-(4-(trifluoromethyl)cyclohexyl)-[1,1′-biphenyl]-2-carboxylic acid], the pIC50 in assay [1] was no less than 6.30; in assay [2], 5.30 to 6.30; in assay [3], 5.00 to 5.30.
Consider `O=C(O)c1ccccc1Cn1cc(C(=O)N2C[C@@H](COCc3cccc(C4CCC(C(F)(F)F)CC4)c3)C3(C2)CN(C(=O)C2(C(F)(F)F)CC2)C3)cn1` (stereo in doubt) [Compound I-113, 2-((4-(8-(((3-(4-(trifluoromethyl)cyclohexyl)benzyl)oxy)methyl)-2-(1-(trifluoromethyl)cyclopropane-1-carbonyl)-2,6-diazaspiro[3.4]octane-6-carbonyl)-1H-pyrazol-1-yl)methyl)benzoic acid], for which the pIC50 in assay [1] is 5.30 to 6.30; in assay [2], less than 5.00; in assay [3], less than 5.00.
Turning to `O=C(O)c1ccccc1Cn1cc(C(=O)N2C[C@@H](COCc3cccc(C4CCC(C(F)(F)F)CC4)c3F)C3(C2)CN(C(=O)C2(C(F)(F)F)CC2)C3)cn1` (stereo in doubt) [Compound I-115, 2-((4-(8-(((2-fluoro-3-(4-(trifluoromethyl)cyclohexyl)benzyl)oxy)methyl)-2-(1-(trifluoromethyl)cyclopropane-1-carbonyl)-2,6-diazaspiro[3.4]octane-6-carbonyl)-1H-pyrazol-1-yl)methyl)benzoic acid], the pIC50 is no less than 6.30 in assay [1], less than 5.00 in assay [2] and less than 5.00 in assay [3].
Take `O=C(O)c1ccc(C2CCN(C(=O)COCC3CN(C(=O)c4cnn(Cc5ccccc5)c4)CC34CN(C(=O)C3(C(F)(F)F)CC3)C4)CC2)c(OC2CCCCC2)c1` (centres unmarked) [Compound I-60, 4-(1-(2-((6-(1-benzyl-1H-pyrazole-4-carbonyl)-2-(1-(trifluoromethyl)cyclopropane-1-carbonyl)-2,6-diazaspiro[3.4]octan-8-yl)methoxy)acetyl)piperidin-4-yl)-3-(cyclohexyloxy)benzoic acid]: the pIC50 in assay [1] and in assay [2] was less than 5.00 in each case.
Consider `O=C(O)c1c(COCC2CN(c3cc(F)cc4ncsc34)CC23CN(C(=O)C2(C(F)(F)F)CC2)C3)cccc1C1CCC(C(F)(F)F)CC1` (centres unmarked) [Compound I-61, 2-(((6-(5-fluorobenzo[d]thiazol-7-yl)-2-(1-(trifluoromethyl)cyclopropane-1-carbonyl)-2,6-diazaspiro[3.4]octan-8-yl)methoxy)methyl)-6-(4-(trifluoromethyl)cyclohexyl)benzoic acid], for which the pIC50 in assay [1] and in assay [2] was less than 5.00 throughout.
As for `O=C(O)C(=CC1CN(C(=O)c2cnn(Cc3ccc(C(F)(F)F)cc3)c2)CC12CN(C(=O)C1(C(F)(F)F)CC1)C2)Cc1cccc(-c2ccc(C(F)(F)F)cc2)n1` (centres unmarked) [Compound I-62, 3-(6-(1-(4-(Trifluoromethyl)benzyl)-1H-pyrazole-4-carbonyl)-2-(1-(trifluoromethyl)cyclopropane-1-carbonyl)-2,6-diazaspiro[3.4]octan-8-yl)-2-((6-(4-(trifluoromethyl)phenyl)pyridin-2-yl)methyl)acrylic acid], the pIC50 in assay [1] and in assay [2] was less than 5.00 throughout.
Regarding `O=C(O)C(=CC1CN(C(=O)c2cnc(O)cn2)CC12CN(C(=O)C1(C(F)(F)F)CC1)C2)Cc1cccc(-c2ccc(C(F)(F)F)cc2)n1` (centres unmarked) [Compound I-63, 3-(6-(5-hydroxypyrazine-2-carbonyl)-2-(1-(trifluoromethyl)cyclopropane-1-carbonyl)-2,6-diazaspiro[3.4]octan-8-yl)-2-((6-(4-(trifluoromethyl)phenyl)pyridin-2-yl)methyl)acrylic acid], the pIC50 in assay [1] and in assay [2] was less than 5.00 each time.
On to `CS(=O)(=O)NC(=O)c1c(COC[C@@H]2CN(C(=O)c3cnn(Cc4ccc(C(F)(F)F)cc4)c3)CC23CN(C(=O)C2(C(F)(F)F)CC2)C3)cccc1C1CCC(C(F)(F)F)CC1` (some centres unmarked) [Compound I-68], for which the pIC50 was 5.30 to 6.30 in assay [1], less than 5.00 in assay [2] and less than 5.00 in assay [3].
For `O=C(c1cnn(Cc2ccc(C(F)(F)F)cc2)c1)N1C[C@@H](COCc2cccc(C3CCC(C(F)(F)F)CC3)c2-c2nn[nH]n2)C2(C1)CN(C(=O)C1(C(F)(F)F)CC1)C2` (some centres unmarked) [Compound I-69], the pIC50 is no less than 6.30 in assay [1], less than 5.00 in assay [2] and less than 5.00 in assay [3].
In the case of `O=C(O)c1c(COC[C@@H]2CN(C(=O)c3cnn(Cc4ccc(C(F)(F)F)cc4)c3)CC23CN(C(=O)C2(C(F)(F)F)CC2)C3)cccc1N1CCC(C(F)(F)F)CC1` [Compound I-72], the pIC50 in assay [1] was 5.30 to 6.30; in assay [2] it was less than 5.00; in assay [3], less than 5.00.
Turning to `O=C(O)c1c(COC[C@@H]2CN(C(=O)c3c[nH]nc3Cc3ccccc3)CC23CN(C(=O)C2(C(F)(F)F)CC2)C3)cccc1C1CCC(C(F)(F)F)CC1` (some centres unmarked) [Compound I-73], the pIC50 is 5.30 to 6.30 in assay [1], less than 5.00 in assay [2] and less than 5.00 in assay [3].
For `O=C(O)c1c(COC[C@@H]2CN(C(=O)c3cnn(Cc4ccc(F)cc4C(F)(F)F)c3)CC23CN(C(=O)C2(C(F)(F)F)CC2)C3)cccc1C1CCC(C(F)(F)F)CC1` (some centres unmarked) [Compound I-76], the pIC50 was no less than 6.30 in assay [1], 5.00 to 5.30 in assay [2] and less than 5.00 in assay [3].
As for `C[C@@H](c1ccc(F)cc1)n1cc(C(=O)N2CC(COCc3cccc(C4CCC(C(F)(F)F)CC4)c3C(=O)O)C3(C2)CN(C(=O)C2(C(F)(F)F)CC2)C3)cn1` (some centres unmarked) [Compound I-77], the pIC50 was 5.30 to 6.30 in assay [1], less than 5.00 in assay [2] and less than 5.00 in assay [3].
On to `C[C@H](c1ccc(F)cc1)n1cc(C(=O)N2CC(COCc3cccc(C4CCC(C(F)(F)F)CC4)c3C(=O)O)C3(C2)CN(C(=O)C2(C(F)(F)F)CC2)C3)cn1` (some centres unmarked) [Compound I-78], for which the pIC50 in assay [1] was 5.30 to 6.30; in assay [2] it was less than 5.00; in assay [3], less than 5.00.
As for `CC1(C)C[C@@H]1C(=O)N1CC2(CN(C(=O)c3cnn(Cc4ccc(F)cc4)c3)CC2COCc2cccc(C3CCC(C(F)(F)F)CC3)c2C(=O)NS(C)(=O)=O)C1` (stereo partly drawn) [Compound I-86, 2-(((2-((S)-2,2-dimethylcyclopropane-1-carbonyl)-6-(1-(4-fluorobenzyl)-1H-pyrazole-4-carbonyl)-2,6-diazaspiro[3.4]octan-8-yl)methoxy)methyl)-N-(methylsulfonyl)-6-(4-(trifluoromethyl)cyclohexyl)benzamide], the pIC50 was no less than 6.30 in assay [1], 5.30 to 6.30 in assay [2] and 5.30 to 6.30 in assay [3].
`CC1(C)C[C@@H]1C(=O)N1CC2(CN(C(=O)c3cnn(Cc4ccc(F)cc4)c3)CC2COCc2cccc(C3CCC4(CCC4)CC3)c2C(=O)O)C1` (stereo partly drawn) [Compound I-88, 2-(((2-((S)-2,2-dimethylcyclopropane-1-carbonyl)-6-(1-(4-fluorobenzyl)-1H-pyrazole-4-carbonyl)-2,6-diazaspiro[3.4]octan-8-yl)methoxy)methyl)-6-(spiro[3.5]nonan-7-yl)benzoic acid]: the pIC50 was no less than 6.30 in assay [1], 5.30 to 6.30 in assay [2] and less than 5.00 in assay [3].
Taken in the same sequence, the figures for `CC1(C(=O)N2CC3(CN(C(=O)c4cnn(Cc5ccc(F)cc5)c4)C[C@H]3COCc3cccc(C4CCC(C(F)(F)F)CC4)c3C(=O)O)C2)CCO1` (stereo partly drawn) [Compound I-93, 2-((((8S)-6-(1-(4-fluorobenzyl)-1H-pyrazole-4-carbonyl)-2-(2-methyloxetane-2-carbonyl)-2,6-diazaspiro[3.4]octan-8-yl)methoxy)methyl)-6-(4-(trifluoromethyl)cyclohexyl)benzoic acid] were 5.30 to 6.30, less than 5.00 and less than 5.00.
